Assay results taken from ChEMBL document CHEMBL1955745, “Synthesis and in vitro antitumor activity of asperphenamate derivatives as autophagy inducer” (Bioorg Med Chem Lett, 2012).
Converted amounts (≈) assume the structure as drawn.

Experiments:
MCF7 = assay: Antiproliferative activity against human MCF7 cells after 3 days by MTT assay; assay type: functional, cell-based; details: MCF7, 72 h
HeLa = assay: Antiproliferative activity against human HeLa cells after 3 days by MTT assay; assay type: functional, cell-based; details: 72 h
Bel-7402 = assay: Antiproliferative activity against human Bel7402 cells after 3 days by MTT assay; assay type: functional, cell-based; details: Bel-7402, 72 h
[1] = Thermodynamic solubility of the compound in phosphate buffer at pH 7.4 at 1 mg after 10 mins by HPLC -UV analysis; assay type: physicochemical; details: read-out: Therm_solubility

C[C@H](NC(=O)c1ccccc1)C(=O)OC[C@@H](Cc1ccccc1)NC(=O)c1ccccc1
IC50 (MCF7): > 100 µM
IC50 (HeLa): > 100 µM
IC50 (Bel-7402): > 100 µM

O=C(Cc1ccccc1O)N[C@H](Cc1ccccc1)C(=O)OC[C@@H](Cc1ccccc1)NC(=O)c1ccccc1
IC50 (MCF7): 18.4 µM
IC50 (HeLa): 19.5 µM
IC50 (Bel-7402): 29.7 µM

O=C(N[C@H](COC(=O)[C@@H](Cc1ccccc1)NC(=O)c1cccc(O)c1)Cc1ccccc1)c1ccccc1
IC50 (MCF7): 42.9 µM
IC50 (HeLa): 26.1 µM
IC50 (Bel-7402): 40.2 µM
solubility thermodynamic at 10 min [1]: 2000 µg/mL (≈ 3820 µM)

O=C(N[C@H](COC(=O)[C@H](Cc1ccccc1)NC(=O)c1ccccc1OCc1ccccc1)Cc1ccccc1)c1ccccc1
IC50 (MCF7): > 100 µM
IC50 (HeLa): > 100 µM
IC50 (Bel-7402): > 100 µM
solubility thermodynamic at 10 min [1]: 26.3 µg/mL (≈ 43 µM)

CC(=O)N[C@H](Cc1ccccc1)C(=O)OC[C@H](Cc1ccccc1)NC(=O)c1ccccc1
IC50 (MCF7): 79.9 µM
IC50 (HeLa): 56.4 µM
IC50 (Bel-7402): 69.8 µM
solubility thermodynamic at 10 min [1]: 207 µg/mL (≈ 466 µM)

C[C@H](NC(=O)c1ccccc1)C(=O)OC[C@H](Cc1ccccc1)NC(=O)c1ccccc1
IC50 (MCF7): > 100 µM
IC50 (HeLa): > 100 µM
IC50 (Bel-7402): > 100 µM
solubility thermodynamic at 10 min [1]: 329 µg/mL (≈ 764 µM)

O=C(Cc1ccc(O)cc1)N[C@H](Cc1ccccc1)C(=O)OC[C@H](Cc1ccccc1)NC(=O)c1ccccc1
IC50 (MCF7): > 100 µM
IC50 (HeLa): > 100 µM
IC50 (Bel-7402): > 100 µM
solubility thermodynamic at 10 min [1]: 295 µg/mL (≈ 550 µM)

O=C(N[C@H](COC(=O)[C@@H](Cc1ccccc1)NC(=O)c1ccccc1OCc1ccccc1)Cc1ccccc1)c1ccccc1
IC50 (MCF7): 42.2 µM
IC50 (HeLa): 24.6 µM
IC50 (Bel-7402): 31.8 µM
solubility thermodynamic at 10 min [1]: 42.6 µg/mL (≈ 69.5 µM)

O=C(N[C@@H](COC(=O)[C@@H](Cc1ccccc1)NC(=O)c1ccc(O)cc1)Cc1ccccc1)c1ccccc1
IC50 (MCF7): 32.8 µM
IC50 (HeLa): 52.1 µM
IC50 (Bel-7402): 51.4 µM

CC(=O)N[C@@H](COC(=O)[C@@H](Cc1ccccc1)NC(=O)c1ccccc1)Cc1ccccc1
IC50 (MCF7): > 100 µM
IC50 (HeLa): > 100 µM
IC50 (Bel-7402): > 100 µM

O=C(N[C@@H](COC(=O)[C@H](Cc1ccccc1)NC(=O)c1ccc(O)cc1)Cc1ccccc1)c1ccccc1
IC50 (MCF7): 59.7 µM
IC50 (HeLa): 62.9 µM
IC50 (Bel-7402): 55.6 µM

O=C(N[C@@H](COC(=O)[C@@H](Cc1ccccc1)NC(=O)c1cccc(O)c1)Cc1ccccc1)c1ccccc1
IC50 (MCF7): 55.3 µM
IC50 (HeLa): 63.4 µM
IC50 (Bel-7402): 49.9 µM

O=C(Cc1ccccc1O)N[C@@H](Cc1ccccc1)C(=O)OC[C@H](Cc1ccccc1)NC(=O)c1ccccc1
IC50 (MCF7): > 100 µM
IC50 (HeLa): > 100 µM
IC50 (Bel-7402): > 100 µM
solubility thermodynamic at 10 min [1]: 349 µg/mL (≈ 650 µM)

CC(=O)N[C@@H](COC(=O)[C@H](Cc1ccccc1)NC(=O)c1ccccc1)Cc1ccccc1
IC50 (MCF7): > 100 µM
IC50 (HeLa): > 100 µM
IC50 (Bel-7402): > 100 µM

C[C@H](COC(=O)[C@H](Cc1ccccc1)NC(=O)c1ccccc1)NC(=O)c1ccccc1
IC50 (MCF7): > 100 µM
IC50 (HeLa): > 100 µM
IC50 (Bel-7402): > 100 µM

O=C(N[C@H](COC(=O)[C@H](Cc1ccccc1)NC(=O)c1ccc(O)cc1)Cc1ccccc1)c1ccccc1
IC50 (MCF7): > 100 µM
IC50 (HeLa): > 100 µM
IC50 (Bel-7402): > 100 µM
solubility thermodynamic at 10 min [1]: 370 µg/mL (≈ 709 µM)

C[C@@H](NC(=O)c1ccccc1)C(=O)OC[C@H](Cc1ccccc1)NC(=O)c1ccccc1
IC50 (MCF7): > 100 µM
IC50 (HeLa): > 100 µM
IC50 (Bel-7402): > 100 µM
solubility thermodynamic at 10 min [1]: 192 µg/mL (≈ 445 µM)

CC(=O)N[C@H](Cc1ccccc1)C(=O)OC[C@@H](Cc1ccccc1)NC(=O)c1ccccc1
IC50 (MCF7): > 100 µM
IC50 (HeLa): > 100 µM
IC50 (Bel-7402): > 100 µM

O=C(Cc1ccc(O)cc1)N[C@@H](Cc1ccccc1)C(=O)OC[C@@H](Cc1ccccc1)NC(=O)c1ccccc1
IC50 (MCF7): > 100 µM
IC50 (HeLa): > 100 µM
IC50 (Bel-7402): > 100 µM

O=C(N[C@@H](COC(=O)[C@H](Cc1ccccc1)NC(=O)c1ccccc1)Cc1ccccc1)c1ccccc1
IC50 (MCF7): > 100 µM
IC50 (HeLa): > 100 µM
IC50 (Bel-7402): > 100 µM

C[C@H](COC(=O)[C@@H](Cc1ccccc1)NC(=O)c1ccccc1)NC(=O)c1ccccc1
IC50 (MCF7): > 100 µM
IC50 (HeLa): > 100 µM
IC50 (Bel-7402): > 100 µM

CC(=O)N[C@@H](Cc1ccccc1)C(=O)OC[C@@H](Cc1ccccc1)NC(=O)c1ccccc1
IC50 (MCF7): > 100 µM
IC50 (HeLa): > 100 µM
IC50 (Bel-7402): > 100 µM

CC(=O)N[C@H](COC(=O)[C@@H](Cc1ccccc1)NC(=O)c1ccccc1)Cc1ccccc1
IC50 (MCF7): 79.5 µM
IC50 (HeLa): > 100 µM
IC50 (Bel-7402): 89 µM
solubility thermodynamic at 10 min [1]: 79.7 µg/mL (≈ 179 µM)

O=C(N[C@@H](COC(=O)[C@H](Cc1ccccc1)NC(=O)c1ccccc1O)Cc1ccccc1)c1ccccc1
IC50 (MCF7): 42.4 µM
IC50 (HeLa): 42.5 µM
IC50 (Bel-7402): 41.2 µM

O=C(N[C@H](COC(=O)[C@@H](Cc1ccccc1)NC(=O)c1ccccc1O)Cc1ccccc1)c1ccccc1
IC50 (MCF7): 11.9 µM
IC50 (HeLa): 15.2 µM
IC50 (Bel-7402): 14.5 µM
solubility thermodynamic at 10 min [1]: 77.4 µg/mL (≈ 148 µM)

O=C(Cc1ccccc1OCc1ccccc1)N[C@@H](Cc1ccccc1)C(=O)OC[C@@H](Cc1ccccc1)NC(=O)c1ccccc1
IC50 (MCF7): 28.2 µM
IC50 (HeLa): 58.8 µM
IC50 (Bel-7402): 70.6 µM

O=C(Cc1ccc(O)cc1)N[C@@H](Cc1ccccc1)C(=O)OC[C@H](Cc1ccccc1)NC(=O)c1ccccc1
IC50 (MCF7): 79.6 µM
IC50 (HeLa): 62.7 µM
IC50 (Bel-7402): 94.4 µM
solubility thermodynamic at 10 min [1]: 109 µg/mL (≈ 204 µM)

O=C(N[C@@H](COC(=O)[C@@H](Cc1ccccc1)NC(=O)c1ccccc1O)Cc1ccccc1)c1ccccc1
IC50 (MCF7): 36.3 µM
IC50 (HeLa): 42.9 µM
IC50 (Bel-7402): 38.1 µM

C[C@@H](NC(=O)c1ccccc1)C(=O)OC[C@@H](Cc1ccccc1)NC(=O)c1ccccc1
IC50 (MCF7): > 100 µM
IC50 (HeLa): > 100 µM
IC50 (Bel-7402): > 100 µM

C[C@@H](COC(=O)[C@H](Cc1ccccc1)NC(=O)c1ccccc1)NC(=O)c1ccccc1
IC50 (MCF7): > 100 µM
IC50 (HeLa): > 100 µM
IC50 (Bel-7402): > 100 µM
solubility thermodynamic at 10 min [1]: 513 µg/mL (≈ 1190 µM)

O=C(N[C@H](COC(=O)[C@H](Cc1ccccc1)NC(=O)c1ccccc1O)Cc1ccccc1)c1ccccc1
IC50 (MCF7): 49 µM
IC50 (HeLa): 30.4 µM
IC50 (Bel-7402): 64.8 µM
solubility thermodynamic at 10 min [1]: 18.2 µg/mL (≈ 34.7 µM)

O=C(N[C@@H](COC(=O)[C@H](Cc1ccccc1)NC(=O)c1ccccc1OCc1ccccc1)Cc1ccccc1)c1ccccc1
IC50 (MCF7): 85.8 µM
IC50 (HeLa): 72.5 µM
IC50 (Bel-7402): 71.7 µM

O=C(Cc1ccccc1OCc1ccccc1)N[C@H](Cc1ccccc1)C(=O)OC[C@H](Cc1ccccc1)NC(=O)c1ccccc1
IC50 (MCF7): 28.8 µM
IC50 (HeLa): 25.5 µM
IC50 (Bel-7402): 37.8 µM
solubility thermodynamic at 10 min [1]: 135 µg/mL (≈ 216 µM)

O=C(N[C@H](COC(=O)[C@@H](Cc1ccccc1)NC(=O)c1ccc(O)cc1)Cc1ccccc1)c1ccccc1
IC50 (MCF7): 53.2 µM
IC50 (HeLa): 59 µM
IC50 (Bel-7402): 68.7 µM
solubility thermodynamic at 10 min [1]: 302 µg/mL (≈ 578 µM)

C[C@@H](COC(=O)[C@@H](Cc1ccccc1)NC(=O)c1ccccc1)NC(=O)c1ccccc1
IC50 (MCF7): > 100 µM
IC50 (HeLa): > 100 µM
IC50 (Bel-7402): > 100 µM
solubility thermodynamic at 10 min [1]: 236 µg/mL (≈ 549 µM)

O=C(Cc1ccccc1OCc1ccccc1)N[C@@H](Cc1ccccc1)C(=O)OC[C@H](Cc1ccccc1)NC(=O)c1ccccc1
IC50 (MCF7): > 100 µM
IC50 (HeLa): > 100 µM
IC50 (Bel-7402): > 100 µM
solubility thermodynamic at 10 min [1]: 223 µg/mL (≈ 356 µM)

CC(=O)N[C@H](COC(=O)[C@H](Cc1ccccc1)NC(=O)c1ccccc1)Cc1ccccc1
IC50 (MCF7): 48.6 µM
IC50 (HeLa): 71.5 µM
IC50 (Bel-7402): 79.1 µM
solubility thermodynamic at 10 min [1]: 485 µg/mL (≈ 1090 µM)

CC(=O)N[C@@H](Cc1ccccc1)C(=O)OC[C@H](Cc1ccccc1)NC(=O)c1ccccc1
IC50 (MCF7): 88.4 µM
IC50 (HeLa): > 100 µM
IC50 (Bel-7402): > 100 µM
solubility thermodynamic at 10 min [1]: 560 µg/mL (≈ 1260 µM)

O=C(N[C@@H](COC(=O)[C@@H](Cc1ccccc1)NC(=O)c1ccccc1)Cc1ccccc1)c1ccccc1
IC50 (MCF7): > 100 µM
IC50 (HeLa): > 100 µM
IC50 (Bel-7402): > 100 µM

O=C(Cc1ccccc1O)N[C@H](Cc1ccccc1)C(=O)OC[C@H](Cc1ccccc1)NC(=O)c1ccccc1
IC50 (MCF7): 62.9 µM
IC50 (HeLa): 53.3 µM
IC50 (Bel-7402): 54 µM
solubility thermodynamic at 10 min [1]: 524 µg/mL (≈ 977 µM)

O=C(Cc1ccccc1O)N[C@@H](Cc1ccccc1)C(=O)OC[C@@H](Cc1ccccc1)NC(=O)c1ccccc1
IC50 (MCF7): 39.2 µM
IC50 (HeLa): 27.9 µM
IC50 (Bel-7402): 33.6 µM

O=C(Cc1ccc(O)cc1)N[C@H](Cc1ccccc1)C(=O)OC[C@@H](Cc1ccccc1)NC(=O)c1ccccc1
IC50 (MCF7): 52.5 µM
IC50 (HeLa): 42.8 µM
IC50 (Bel-7402): 70.9 µM

O=C(N[C@@H](COC(=O)[C@H](Cc1ccccc1)NC(=O)c1cccc(O)c1)Cc1ccccc1)c1ccccc1
IC50 (MCF7): > 100 µM
IC50 (HeLa): > 100 µM
IC50 (Bel-7402): > 100 µM

O=C(N[C@H](COC(=O)[C@@H](Cc1ccccc1)NC(=O)c1ccccc1)Cc1ccccc1)c1ccccc1
IC50 (MCF7): > 100 µM
IC50 (HeLa): > 100 µM
IC50 (Bel-7402): > 100 µM
solubility thermodynamic at 10 min [1]: 3.21 µg/mL (≈ 6.34 µM)

O=C(N[C@H](COC(=O)[C@H](Cc1ccccc1)NC(=O)c1cccc(O)c1)Cc1ccccc1)c1ccccc1
IC50 (MCF7): > 100 µM
IC50 (HeLa): > 100 µM
IC50 (Bel-7402): > 100 µM
solubility thermodynamic at 10 min [1]: 1590 µg/mL (≈ 3040 µM)

O=C(N[C@@H](COC(=O)[C@@H](Cc1ccccc1)NC(=O)c1ccccc1OCc1ccccc1)Cc1ccccc1)c1ccccc1
IC50 (MCF7): 70.3 µM
IC50 (HeLa): 54.4 µM
IC50 (Bel-7402): 41.1 µM

O=C(N[C@H](COC(=O)[C@H](Cc1ccccc1)NC(=O)c1ccccc1)Cc1ccccc1)c1ccccc1 [ASPERPHENAMATE]
IC50 (MCF7): 94.8 µM
IC50 (HeLa): > 100 µM
IC50 (Bel-7402): > 100 µM
solubility thermodynamic at 10 min [1]: 8.85 µg/mL (≈ 17.5 µM)
